Data: publication PMC7356228, “Alvaxanthone, a Thymidylate Synthase Inhibitor with Nematocidal and Tumoricidal Activities” (Molecules, 2020)
Like-named read-outs stand apart in the source and are kept apart here.

Key:
TsTS = TsTS (Trichinella spiralis, UniProt Q9NDD3); test: Inhibition of TS-catalyzed reaction (tritium release from [5-3H]dUMP); format: biochemical, T. spiralis; details: for remaining activity at 10 µM: compound 10 µM; for remaining activity at 10 µM / remaining activity at 100 µM: 20 µM dUMP; for remaining activity at 100 µM: compound 100 µM
Sequence of TsTS (Q9NDD3 entry or part of it): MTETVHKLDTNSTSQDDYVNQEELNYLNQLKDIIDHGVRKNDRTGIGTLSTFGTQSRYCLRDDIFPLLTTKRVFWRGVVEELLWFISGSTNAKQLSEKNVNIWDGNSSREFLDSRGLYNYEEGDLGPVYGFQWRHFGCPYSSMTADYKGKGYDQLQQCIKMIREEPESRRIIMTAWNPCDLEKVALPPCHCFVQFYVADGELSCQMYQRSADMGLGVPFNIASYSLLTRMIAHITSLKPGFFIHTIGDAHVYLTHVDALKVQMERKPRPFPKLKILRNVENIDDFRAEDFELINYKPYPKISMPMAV
Description: The recombinant human, rat, mouse, T. spiralis and C. elegans TS proteins were produced, purified and separated into phosphorylated and non-phosphorylated fraction, as previously described. TS activity was monitored, following tritium release from [5-^3H]dUMP, and its inhibition studied as earlier reported.

[1] = system: SCC-15 human squamous carcinoma cells; test: Cytotoxicity, neutral red uptake (NR) assay; format: cell-based; details: for IC50: read-out: IC50
Description: (§1) Biological effect of alvaxanthone and rheediaxanthone B on normal (BJ) and cancer cells (U-118 MG and SCC-15) was estimated using two viability assays, the neutral red uptake (NR) and tetrazolium salts reduction (XTT) assays.
(§2) Human glioblastoma cells U-118 MG (ATCC® HTB-15), human squamous carcinoma cells SCC-15 (ATCC® CRL-1623), and normal human skin fibroblasts (ATCC® CRL-2522) were grown, their morphology checked, and number and viability estimated as earlier presented.
(§3) Influence of selected compounds on cells was tested by performing the cytotoxicity (NR and XTT) assays, proliferation assay, cell adhesion assay, cell migration assay, determination of intracellular ATP level, and apoptosis assay as previously reported.

[2] = system: U-118 MG human glioblastoma cells; test: Cytotoxicity, neutral red uptake (NR) assay; format: cell-based; details: U-118 MG
Description: as §1, §2, §3

[3] = system: caspases 3/7 in BJ, U-118 MG, and SCC-15 cells; test: Apo-ONE Homogenous Caspase-3/7 Assay; format: cell-based, human; details: 48 h, 5–40 µM, span over the three cell lines
Description: (§4) Figure 4 Changes of caspase-3/7 activities and intracellular ATP level in BJ, U-118 MG, and SCC-15 cells after 48-h incubation with 5–40 µM alvaxanthone or rheediaxanthone B. Median results are presented of three independent experiments, each performed in triplicate. The whiskers are lower (25%) and upper (75%) quartile ranges.
The Apo-ONE® Homogenous Caspase-3/7 Assay provides a measurement of the executioner caspases 3/7 activation, characteristic for apoptosis induced via both the intrinsic and extrinsic pathway. It was used to determine apoptosis induction in cells by alvaxanthone and rheediaxanthone B. In each of the three cell lines, compared to the respective non-treated control, treatment with each of the two compounds for 48 h led to a significant activation of the caspases 3/7 (by 2- to 10-fold for alvaxanthone and 8- to 18-fold for rheediaxanthone B), the effect being stronger in cancer than normal cells (Figure 4).
as §3

SCC-15 cells = test: Intracellular ATP level (CellTiterGlo); format: cell-based, human; details: 48-h incubation, SCC-15
Description: as §4
(§5) On the other hand, rheediaxanthone B caused a reduction of ATP level down to around 30% in glioma cells and fibroblasts, and to 20% in squamous carcinoma cells (Figure 4). In general, with increasing Caspase-3/7 activity the ATP level was decreasing, in accord with the results of Reference.
as §3

U-118 MG cells = test: Intracellular ATP level (CellTiterGlo); format: cell-based, human; details: 48-h incubation, glioma cells
Description: as §4, §5, §3

[4] = system: human oral squamous carcinoma cells (HSC-2 cell line); set-up: method as in Hou et al. [41]; details: 24 h incubation; ref Hou et al. [41]; cited from earlier work

## C=CC(C)(C)c1c(O)cc2oc3c(O)c(O)cc(CC=C(C)C)c3c(=O)c2c1O [Alvaxanthone (15), Alvaxanthone]
TsTS; IC50, 20 µM dUMP and 50 µM meTHF, mean ± S.E.M. (N=3) for alvaxanthone, rheediaxanthone B not repeated
  IC50: 41.9 ± 8.1 µM
TsTS; 50 µM meTHF
  remaining activity at 10 µM: 97%
  remaining activity at 100 µM: 14%
TsTS; 250 µM meTHF
  remaining activity at 10 µM: 98%
  remaining activity at 100 µM: 47%
[1]; Homo sapiens, NR assay, 40 µM, 48 h
  viability at 40 µM: 1.5%
[1]; Homo sapiens, SCC-15, neutral red assay
  IC50: 17 µM
[1]; neutral red assay
  IC50: 17.7 µM
[2]; NR assay, 40 µM, 48 h
  viability at 40 µM: 10%
[2]; neutral red assay, read-out: IC50
  IC50: 13.1 µM
[3]
  activation of the caspases 3/7 compared to non-treated control: 2- to 10 fold
SCC-15 cells
  change of ATP level: dramatically reduced
U-118 MG cells
  change of ATP level: unaltered
[4]
  IC50: 22 µM
